# In patent US5442053A, “Salts and mixtures of hyaluronic acid with pharmaceutically active substances, pharmaceutical compositions containing the same and methods for administration of such compositions” (Fidia, S.p.A., priority 1983, dated 1995):
# Columns and labels:
# salmonella typhi = experiment: Recovery from dry inflammation in rabbit eye, salmonella typhi; type: in vivo
# Protocol: (§1) Studies were carried out with hyaluronic acid salts of the antibiotics: streptomycin, erythromycin, neomycin and gentamicin. The salts utilized are the total salts in which all of the acid groups of hyaluronic acid are salified with a basic group of the antibiotic and prepared according to the procedures described hereinabove in Examples 1, 2, 4 and 5.
# (§2) For administration, preparations were utilized comprising solutions of the HY drug complex in distilled water, having concentrations suitable to the antibiotic content:
# (§3) The activity of the above HY salts was compared to that given by the same antibiotics dissolved in phosphate buffer and having the same concentrations of antibiotic. The activity of the two groups of products was measured on the basis of the time necessary to suppress a dry inflammation of the rabbit eye induced by a bacterial agent.
# (§4) More precisely, the dry inflammation was determined in both eyes of 24 rabbits by intraocular injection of the titered suspension of one of the following bacterial groups: pseudomonas aeruginosa, staphylococcus aureus, salmonella typhi (0.1 ml). The various saline derivatives of the antibiotics were administered (3 drops every 6 hours) into the right eye (RE) of the rabbits, while into the left eye (LE) were instilled the corresponding quantities of the antibiotics dissolved in phosphate buffer. The treatment was begun immediately after injectin of the bacterial suspension and was continued until inflammation disappeared.
# (§5) In particular the following were examined: the state of the conjuntiva and the corneal epithelium, anterior chamber (presence of the Tyndall effect), the state of the iris of the posterior segment of the eye. The state of the back of the eye was examined with a Goldman lens. The presence of signs of inflammation (hyperemia, exudates, cloudiness of the liquids etc.) was registered.
# pseudomonas aeruginosa = experiment: Recovery from dry inflammation in rabbit eye, pseudomonas aeruginosa; type: in vivo
# Protocol: as §1, §2, §3, §4, §5
# rabbit eye = experiment: Anti-inflammatory activity of triamcinolone vehicled in hyaluronic acid, dextran-induced intraocular inflammation; type: in vivo, rabbit (male New Zealand); conditions: for Evaluated Score, Conjunctiva / Evaluated Score, Cornea / Evaluated Score, Iris / Evaluated Score, Tyndall: score 0 to 3
# Protocol: The experiments were carried out on male New Zealand rabbits (average weight 1.6 kg). After an adaption period of 5 days, introocular inflammation was induced in the rabbits by intraocular injection of dextran (10%, 0.1 ml). The administration was effected in both eyes under local anaesthetic with 4% Novesina, inserting the needle of the syringe at the edge of the cornea in the anterior chamber at a distance of 2 mm. The test was conducted on 10 animals.
# Treatment was effected in each animal both in the right and left eyes, by instillation of 3 drops 3 times a day for 6 days in all, of the following:
# a solution of triamcinolone (10% in saline) in the left eye (LE);
# a solution of hyaluronic acid sodium salt, HYALECTIN fraction, (10 mg/ml)+triamcinolone phosphate (10%) in the right eye (RE).
# The anti-inflammatory effect on the reaction induced by dextran was evaluated by observing the eye with a slit lamp at the following intervals: 0, 1 hr, 3 hr, 24 hr, 48 hr, 3 days, 4 days, 5 days and 6 days.
# At the intervals, the eye examination evaluated the following observations:
# the state of the cornea and conjunctiva for the possible presence of hypermia, edema, and especially observation of the iris which is normally sensitive to inflammatory processes after injection of inflammatory agents into the anterior chamber;
# the Tyndall effect, in which the presence of opacity of varying intensity ("nubecula") is indicative of the presence of corpuscular (inflammatory) elements in the anterior chamber.
# The result of the observation was expressed in terms of subjective scoring (from 0 to 3) related to the gradualness of the effect noted.
# staphylococcus aureus = experiment: Recovery from dry inflammation in rabbit eye, staphylococcus aureus; type: in vivo
# Protocol: as §1, §2, §3, §4, §5
# [1] = tested on: Bacillus subtillis ATCC 6633; experiment: Antimicrobial activity of streptomycin sulphate vehicled in hyaluronic acid, agar diffusion; type: cell-based, Bacillus subtilis
# Protocol: A solution of the two components (60 g hyaluronic acid sodium salt and 40 g streptomycin sulphate) was prepared and then freeze-dried.
# The antimicrobial activity of the formulation of streptomycin in hyaluronic acid sodium salt, HYALASTINE fraction, was controlled by microbial assay by agar diffusion, based on the reading after a suitable period of incubation at 32° C., and on a comparison of the diameters of the microorganism's inhibition zones (Bacillus subtillis ATCC 6633) determined on the presumed concentrations of the antibiotic under examination and on the corresponding and known concentrations of the working standard.
# After 18 hours of incubation of the assay plate at 32° C., it was observed that streptomycin vehicled in
# The results (Table 11) were obtained by measuring the diameter of microbial inhibition zones at working concentrations of 20 and 5 UI/ml, and expressed in units of antimicrobial activity per miligram of the mixture compared to streptomycin sulphate.
# [2] = day 1, pseudomonas aeruginosa, 3 drops every 6 hours, 6 eyes
compound,measurement,setting,value
neomycin,percentage of eyes which did not present any signs of inflammation,"salmonella typhi; day 1, salmonella typhi, 3 drops every 6 hours, 6 eyes",0.0%
same,percentage of eyes which did not present any signs of inflammation,"salmonella typhi; day 2, salmonella typhi",0.0%
same,percentage of eyes which did not present any signs of inflammation,"salmonella typhi; day 3, salmonella typhi",0.0%
same,percentage of eyes which did not present any signs of inflammation,"salmonella typhi; day 4, salmonella typhi",0.0%
same,percentage of eyes which did not present any signs of inflammation,"salmonella typhi; day 5, salmonella typhi",0.0%
same,percentage of eyes which did not present any signs of inflammation,"salmonella typhi; day 6, salmonella typhi",0.0%
same,percentage of eyes which did not present any signs of inflammation,"salmonella typhi; day 7, salmonella typhi",16.6%
same,percentage of eyes which did not present any signs of inflammation,"salmonella typhi; day 8, salmonella typhi",33.3%
"[H]/N=C(/N)N[C@H]1[C@H](O)[C@@H](O)[C@H](O[C@@H]2O[C@@H](C)[C@](O)(C=O)[C@H]2O[C@@H]2O[C@@H](CO)[C@H](O)[C@@H](O)[C@@H]2NC)[C@@H](N/C(N)=N\[H])[C@@H]1O [Streptomycin, streptomycin]",percentage of eyes which did not present any signs of inflammation,pseudomonas aeruginosa; [2],0.0%
same,percentage of eyes which did not present any signs of inflammation,"pseudomonas aeruginosa; day 2, pseudomonas aeruginosa",0.0%
same,percentage of eyes which did not present any signs of inflammation,"pseudomonas aeruginosa; day 3, pseudomonas aeruginosa",0.0%
same,percentage of eyes which did not present any signs of inflammation,"pseudomonas aeruginosa; day 4, pseudomonas aeruginosa",0.0%
same,percentage of eyes which did not present any signs of inflammation,"pseudomonas aeruginosa; day 5, pseudomonas aeruginosa",0.0%
same,percentage of eyes which did not present any signs of inflammation,"pseudomonas aeruginosa; day 6, pseudomonas aeruginosa",16.6%
same,percentage of eyes which did not present any signs of inflammation,"pseudomonas aeruginosa; day 7, pseudomonas aeruginosa",50.0%
same,percentage of eyes which did not present any signs of inflammation,"pseudomonas aeruginosa; day 8, pseudomonas aeruginosa",100.0%
C[C@]12C=CC(=O)C=C1CC[C@H]1[C@@H]3C[C@@H](O)[C@](O)(C(=O)CO)[C@@]3(C)C[C@H](O)[C@@]12F [triamcinolone],"Evaluated Score, Conjunctiva",rabbit eye; 0,0.0
same,"Evaluated Score, Cornea",rabbit eye; 0,0.0
same,"Evaluated Score, Iris",rabbit eye; 0,0.0
same,"Evaluated Score, Tyndall",rabbit eye; 0,0.0
same,"Evaluated Score, Conjunctiva",rabbit eye; 1 hour,0.2
same,"Evaluated Score, Cornea",rabbit eye; 1 hour,1.0
same,"Evaluated Score, Iris",rabbit eye; 1 hour,0.5
same,"Evaluated Score, Tyndall",rabbit eye; 1 hour,1.0
same,"Evaluated Score, Conjunctiva",rabbit eye; 3 hours,0.0
same,"Evaluated Score, Cornea",rabbit eye; 3 hours,0.0
same,"Evaluated Score, Iris",rabbit eye; 3 hours,2.7
same,"Evaluated Score, Tyndall",rabbit eye; 3 hours,3.0
same,"Evaluated Score, Conjunctiva",rabbit eye; 24 hours,0.0
same,"Evaluated Score, Cornea",rabbit eye; 24 hours,0.1
same,"Evaluated Score, Iris",rabbit eye; 24 hours,3.0
same,"Evaluated Score, Tyndall",rabbit eye; 24 hours,3.0
same,"Evaluated Score, Conjunctiva",rabbit eye; 48 hours,0.0
same,"Evaluated Score, Cornea",rabbit eye; 48 hours,0.0
same,"Evaluated Score, Iris",rabbit eye; 48 hours,3.0
same,"Evaluated Score, Tyndall",rabbit eye; 48 hours,3.0
same,"Evaluated Score, Conjunctiva",rabbit eye; 3 days,0.0
same,"Evaluated Score, Cornea",rabbit eye; 3 days,0.0
same,"Evaluated Score, Iris",rabbit eye; 3 days,3.0
same,"Evaluated Score, Tyndall",rabbit eye; 3 days,3.0
same,"Evaluated Score, Conjunctiva",rabbit eye; 4 days,0.0
same,"Evaluated Score, Cornea",rabbit eye; 4 days,0.0
same,"Evaluated Score, Iris",rabbit eye; 4 days,2.4
same,"Evaluated Score, Tyndall",rabbit eye; 4 days,2.2
same,"Evaluated Score, Conjunctiva",rabbit eye; 5 days,0.0
same,"Evaluated Score, Cornea",rabbit eye; 5 days,0.0
same,"Evaluated Score, Iris",rabbit eye; 5 days,1.5
same,"Evaluated Score, Tyndall",rabbit eye; 5 days,1.2
same,"Evaluated Score, Conjunctiva",rabbit eye; 6 days,0.0
same,"Evaluated Score, Cornea",rabbit eye; 6 days,0.0
same,"Evaluated Score, Iris",rabbit eye; 6 days,0.5
same,"Evaluated Score, Tyndall",rabbit eye; 6 days,0.4
same,anti-inflammatory effect (in words),rabbit eye; dextran-induced intraocular inflammation,"almost normal conditions are restored, with perfect limpidness of the eye by the 6th day"
"CC[C@H]1OC(=O)[C@H](C)[C@@H](O[C@H]2C[C@@](C)(OC)[C@@H](O)[C@H](C)O2)[C@H](C)[C@@H](O[C@@H]2O[C@H](C)C[C@H](N(C)C)[C@H]2O)[C@](C)(O)C[C@@H](C)C(=O)[C@H](C)[C@@H](O)[C@]1(C)O [Erthromycin, erythromycin]",percentage of eyes which did not present any signs of inflammation,"staphylococcus aureus; day 1, staphylococcus aureus, 3 drops every 6 hours, 6 eyes",0.0%
same,percentage of eyes which did not present any signs of inflammation,"staphylococcus aureus; day 2, staphylococcus aureus",0.0%
same,percentage of eyes which did not present any signs of inflammation,"staphylococcus aureus; day 3, staphylococcus aureus",0.0%
same,percentage of eyes which did not present any signs of inflammation,"staphylococcus aureus; day 4, staphylococcus aureus",0.0%
same,percentage of eyes which did not present any signs of inflammation,"staphylococcus aureus; day 5, staphylococcus aureus",0.0%
same,percentage of eyes which did not present any signs of inflammation,"staphylococcus aureus; day 6, staphylococcus aureus",0.0%
same,percentage of eyes which did not present any signs of inflammation,"staphylococcus aureus; day 7, staphylococcus aureus",16.6%
same,percentage of eyes which did not present any signs of inflammation,"staphylococcus aureus; day 8, staphylococcus aureus",33.3%
gentamicin [Gentamycin],percentage of eyes which did not present any signs of inflammation,pseudomonas aeruginosa; [2],0.0%
same,percentage of eyes which did not present any signs of inflammation,"pseudomonas aeruginosa; day 2, pseudomonas aeruginosa",0.0%
same,percentage of eyes which did not present any signs of inflammation,"pseudomonas aeruginosa; day 3, pseudomonas aeruginosa",0.0%
same,percentage of eyes which did not present any signs of inflammation,"pseudomonas aeruginosa; day 4, pseudomonas aeruginosa",0.0%
same,percentage of eyes which did not present any signs of inflammation,"pseudomonas aeruginosa; day 5, pseudomonas aeruginosa",0.0%
same,percentage of eyes which did not present any signs of inflammation,"pseudomonas aeruginosa; day 6, pseudomonas aeruginosa",33.3%
same,percentage of eyes which did not present any signs of inflammation,"pseudomonas aeruginosa; day 7, pseudomonas aeruginosa",50.0%
same,percentage of eyes which did not present any signs of inflammation,"pseudomonas aeruginosa; day 8, pseudomonas aeruginosa",100.0%
"[H]/N=C(/N)N[C@H]1[C@H](O)[C@@H](O)[C@H](O[C@@H]2O[C@@H](C)[C@](O)(C=O)[C@H]2O[C@@H]2O[C@@H](CO)[C@H](O)[C@@H](O)[C@@H]2NC)[C@@H](N/C(N)=N\[H])[C@@H]1O [Streptomycin sulphate, streptomycin sulphate]","antimicrobial activity, Theoretical",[1],750 UI/MG
same,"antimicrobial activity, Effective","[1]; 18 hours, 32° C., 20 and 5 UI/ml",750 UI/MG
same,"antimicrobial activity, Effective (as streptomycin sulphate content)",[1]; values in parenthesis,1000 mg/gr
same,"antimicrobial activity, Theoretical (as streptomycin sulphate content)",[1]; values in parenthesis,1000 mg/gr
